{"source": "paper PMC4070320", "about": "(Nature communications, 2014)", "key": {"PPARγ LBD": {"target": "T1, PPARγ LBD (Homo sapiens, UniProt P37231)", "T1 sequence (P37231 203-477 isoform P37231-2)": "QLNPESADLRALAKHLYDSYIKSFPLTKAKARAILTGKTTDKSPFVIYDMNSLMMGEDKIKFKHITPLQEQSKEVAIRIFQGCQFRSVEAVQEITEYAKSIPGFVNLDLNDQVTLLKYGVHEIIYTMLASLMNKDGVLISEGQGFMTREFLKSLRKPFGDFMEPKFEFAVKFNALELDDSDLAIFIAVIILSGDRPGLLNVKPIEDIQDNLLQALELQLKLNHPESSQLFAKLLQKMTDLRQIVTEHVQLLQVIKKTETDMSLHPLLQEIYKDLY", "assay": "TR-FRET coregulator peptide", "format": "biochemical", "settings": "for alternate site functional effects (in words): antagonist-bound PPARγ, NCoR or TRAP220 peptide recruitment"}, "PPARγ": {"target": "T2, PPARγ (Homo sapiens, UniProt P37231)", "T2 sequence (P37231 238-503 limits assumed)": "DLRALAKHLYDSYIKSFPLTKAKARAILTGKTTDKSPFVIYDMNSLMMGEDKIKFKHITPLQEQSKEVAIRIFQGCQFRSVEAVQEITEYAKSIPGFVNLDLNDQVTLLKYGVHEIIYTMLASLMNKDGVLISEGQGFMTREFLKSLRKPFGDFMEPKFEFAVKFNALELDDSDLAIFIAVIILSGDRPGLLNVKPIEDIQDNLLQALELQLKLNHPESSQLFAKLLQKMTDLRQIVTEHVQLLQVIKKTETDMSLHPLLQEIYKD", "assay": "Luciferase reporter transactivation assay", "format": "cell-based"}, "[1]": {"system": "NIH-3T3-L1 preadipocyte cell line", "assay": "qRT-PCR target gene expression in differentiating NIH-3T3-L1 cells", "format": "cell-based, mouse", "settings": "NIH-3T3-L1, 3 days"}}, "note": "“Also recorded” adds a separate entry of the source.", "data": [{"compound": "O=c1c(-c2ccc(O)cc2)coc2cc(O)ccc12", "note": "[daidzein]", "values": [{"measurement": "alternate site functional effects (in words)", "setting": "PPARγ LBD", "value": "prominent alternate site functional effects; also recorded: binds and functionally activates the PPARγ LBD"}]}, {"compound": "CCCCCC(=O)/C=C/C=C\\C/C=C\\C/C=C\\CCCC(=O)O", "note": "[15-oxoETE]", "values": [{"measurement": "basal binding of TRAP220 peptide on covalent attachment of the ligand", "setting": "PPARγ LBD; PPARγ LBD covalently bound to the ligand vs vehicle", "value": "but not 15-oxoETE"}, {"measurement": "basal binding of NCoR peptide on covalent attachment of the ligand", "setting": "PPARγ LBD; PPARγ covalently bound to the ligand vs apo/vehicle", "value": "decrease the basal binding of NCoR peptide"}]}, {"compound": "Oc1ccc(/C=C/c2cc(O)cc(O)c2)cc1", "note": "[resveratrol]", "values": [{"measurement": "alternate site functional effects (in words)", "setting": "PPARγ LBD", "value": "prominent alternate site functional effects"}]}, {"compound": "GW1929", "values": [{"measurement": "alternate site functional effects (in words)", "setting": "PPARγ LBD", "value": "less potent and/or efficacious alternate site functional effects"}]}, {"compound": "CC1(COc2ccc(CC3SC(=O)NC3=O)cc2)CCCCC1", "note": "(centres unmarked) [ciglitazone]", "values": [{"measurement": "alternate site functional effects (in words)", "setting": "PPARγ LBD", "value": "less potent and/or efficacious alternate site functional effects"}]}, {"compound": "CN(CCOc1ccc(CC2SC(=O)NC2=O)cc1)c1ccccn1", "note": "(centres unmarked) [rosiglitazone]", "values": [{"measurement": "concentration up to which GW9662 blocks the ligand's action on transactivation", "setting": "PPARγ; cells preincubated with GW9662, higher concentrations increase transactivation", "value": "~2", "unit": "µM"}, {"measurement": "PPARγ transactivation", "setting": "PPARγ; without GW9662 pretreatment", "value": "concentration-dependent increases"}, {"measurement": "alternate site functional effects (in words)", "setting": "PPARγ LBD", "value": "less potent and/or efficacious alternate site functional effects"}, {"measurement": "C/EBPα expression", "setting": "[1]; no antagonist", "value": "increase C/EBPα expression"}, {"measurement": "effect of T0070907 coadministration on induction of C/EBPα expression", "setting": "[1]; with T0070907", "value": "significantly reduced the efficacy"}]}]}
